In US11891365B2, “3-alkyl-4-amido-bicyclic [4,5,0] hydroxamic acids as HDAC inhibitors” (Valo Health, Inc., priority 2015, dated 2024):

What follows are molecules tested against T1, Full length human recombinant HDAC6 protein (Homo sapiens, UniProt Q9UBN7) (assay: In vitro histone deacetylase assay: enzymatic HDAC6 electrophoretic mobility shift assay). Settings: 1 nM enzyme, 2 μM peptide substrate RHKK(Ac)-NH2, 25° C., 12 concentrations; read-out: Inhibitory Concentration (IC50) Values against HDAC6, Activity Range.
T1 sequence (Q9UBN7 1-1215): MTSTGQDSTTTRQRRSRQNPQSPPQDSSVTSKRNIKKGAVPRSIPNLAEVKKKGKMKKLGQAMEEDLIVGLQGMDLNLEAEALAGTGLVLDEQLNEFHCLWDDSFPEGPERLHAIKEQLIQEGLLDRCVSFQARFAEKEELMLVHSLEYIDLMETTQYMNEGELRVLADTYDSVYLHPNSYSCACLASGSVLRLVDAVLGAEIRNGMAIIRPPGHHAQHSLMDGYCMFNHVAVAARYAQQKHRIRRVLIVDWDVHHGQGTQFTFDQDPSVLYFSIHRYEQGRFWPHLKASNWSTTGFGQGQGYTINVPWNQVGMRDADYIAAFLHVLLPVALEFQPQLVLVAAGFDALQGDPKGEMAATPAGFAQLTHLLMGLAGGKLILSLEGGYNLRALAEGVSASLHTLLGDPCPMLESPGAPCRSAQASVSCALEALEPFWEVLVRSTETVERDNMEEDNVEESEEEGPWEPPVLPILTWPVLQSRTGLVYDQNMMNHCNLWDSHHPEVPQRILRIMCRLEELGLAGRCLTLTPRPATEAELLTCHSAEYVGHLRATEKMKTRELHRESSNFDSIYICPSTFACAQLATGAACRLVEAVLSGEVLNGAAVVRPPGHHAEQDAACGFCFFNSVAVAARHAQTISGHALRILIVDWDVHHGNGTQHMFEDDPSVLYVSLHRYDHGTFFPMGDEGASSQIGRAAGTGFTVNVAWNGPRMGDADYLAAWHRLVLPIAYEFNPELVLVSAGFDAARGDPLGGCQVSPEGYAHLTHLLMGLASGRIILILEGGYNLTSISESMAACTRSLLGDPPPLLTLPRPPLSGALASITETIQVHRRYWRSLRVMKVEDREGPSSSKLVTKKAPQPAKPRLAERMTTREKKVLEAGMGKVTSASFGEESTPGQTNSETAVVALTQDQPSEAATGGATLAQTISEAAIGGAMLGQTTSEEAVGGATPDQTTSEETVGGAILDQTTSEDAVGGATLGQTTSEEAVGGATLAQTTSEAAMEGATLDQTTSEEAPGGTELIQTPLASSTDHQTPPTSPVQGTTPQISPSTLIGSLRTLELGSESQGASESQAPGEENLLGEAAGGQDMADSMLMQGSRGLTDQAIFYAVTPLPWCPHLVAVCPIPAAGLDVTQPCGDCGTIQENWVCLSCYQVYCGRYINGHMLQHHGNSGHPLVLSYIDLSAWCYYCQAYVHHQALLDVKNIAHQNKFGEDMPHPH
Type: biochemical
Procedure: The enzymatic HDAC6 assay was performed using electrophoretic mobility shift assay. […] The enzymatic reactions were assembled in 384 well plates in a total volume of 25 μL in a reaction buffer composing: 100 mM HEPES, pH7.5, 25 mM KCl, 0.1% bovine serum albumin, 0.01% Triton X-100, 1% DMSO (from compounds) 2 μM of the fluorescently labeled peptide substrate and enzyme. The enzyme was added at a final concentration of 1 nM. The peptide substrate RHKK(Ac)—NH2 was used. The compounds were tested at 12 concentrations spaced by 3× dilution intervals. Negative control samples ([…] in the absence of inhibitor) and positive control samples (100%-inhibition) were assembled in replicates of four in each assay plate. The reactions were incubated at 25° C. and quenched by the addition of 45 μL of termination buffer (100 mM HEPES, pH 7.5, 0.01% Triton X-100, 0.05% SDS).
The terminated assay plates were analyzed on LabChip® 3000 microfluidic electrophoresis instrument (Perkin Elmer/Caliper Life Sciences). The fluorescence intensity of the electrophoretically separated de-acetylated product and substrate peptide was measured. Activity in each sample was determined as the product to sum ratio (PSR): P/(S+P), where P is the peak height of the product peptide and S is the peak height of the substrate peptide. Percent inhibition (Pinh) is determined using the following equation:
Pinh=(PSR0%−PSRinh)/(PSR0%−PSR100%)*100, where PSRinh is the product sum ratio in the presence of inhibitor, PSR0% is the average product sum ration in the absence of inhibitor and PSR100% is the average product sum ratio in 100%-inhibition control samples. The IC50 values of inhibitors were determined by fitting the %-inhibition curves with 4 parameter dose-response model using XLfit 4 software.

SMILES | IC50 [µM]
O=C(NO)c1ccc2c(c1)OCCN(C(=O)c1ccccc1)C2 [4-benzoyl-N-hydroxy-2,3,4,5-tetrahydrobenzo[f][1,4]oxazepine-8-carboxamide] | ≤ 0.1
O=CN1CCOc2cc(C(=O)NO)ccc2C1 [4-formyl-N-hydroxy-2,3,4,5-tetrahydrobenzo[f][1,4]oxazepine-8-carboxamide] | ≤ 0.1
O=C(NO)c1cnc2c(n1)OCCN(C(=O)C1CCCCC1)C2 [8-(cyclohexanecarbonyl)-N-hydroxy-6,7,8,9-tetrahydropyrazino[2,3-f][1,4]oxazepine-3-carboxamide] | ≤ 0.1
O=C(NO)c1ccc2c(c1)O[C@@H]1C[C@H]2N(C(=O)C2CCOCC2)C1 [(2R,5R)-N-hydroxy-4-(tetrahydro-2H-pyran-4-carbonyl)-2,3,4,5-tetrahydro-2,5-methanobenzo[f][1,4]oxazepine-8-carboxamide] | 0.1 to 0.5
O=C(NO)c1ccc2c(c1)O[C@H]1C[C@@H]2N(C(=O)C2CCOCC2)C1 [(2S,5S)-N-hydroxy-4-(tetrahydro-2H-pyran-4-carbonyl)-2,3,4,5-tetrahydro-2,5-methanobenzo[f][1,4]oxazepine-8-carboxamide] | > 0.5
C[C@H]1COc2cc(C(=O)NO)ccc2CN1C(=O)C1CCS(=O)(=O)C1 (stereo partly drawn) [(3S)-4-(1,1-dioxidotetrahydrothiophene-3-carbonyl)-N-hydroxy-3-methyl-2,3,4,5-tetrahydrobenzo[f][1,4]oxazepine-8-carboxamide] | ≤ 0.1
CC(=O)N1CCC(C(=O)N2Cc3ccc(C(=O)NO)cc3OC[C@@H]2C)C1 (stereo partly drawn) [(3S)-4-(1-acetylpyrrolidine-3-carbonyl)-N-hydroxy-3-methyl-2,3,4,5-tetrahydrobenzo[f][1,4]oxazepine-8-carboxamide] | ≤ 0.1
CC1CC(C(=O)N2Cc3ccc(C(=O)NO)cc3OC[C@@H]2C)CC(C)O1 (stereo partly drawn) [(3S)-4-(2,6-dimethyltetrahydro-2H-pyran-4-carbonyl)-N-hydroxy-3-methyl-2,3,4,5-tetrahydrobenzo[f][1,4]oxazepine-8-carboxamide] | ≤ 0.1
C[C@H]1COc2cc(C(=O)NO)ccc2CN1C(=O)C1CCC(C)(C)O1 (stereo partly drawn) [(3S)-4-(5,5-dimethyltetrahydrofuran-2-carbonyl)-N-hydroxy-3-methyl-2,3,4,5-tetrahydrobenzo[f][1,4]oxazepine-8-carboxamide] | ≤ 0.1
C[C@H]1COc2cc(C(=O)NO)ccc2CN1C(=O)C1CC2CCC(C1)O2 (stereo partly drawn) [(3S)-4-(8-oxabicyclo[3.2.1]octane-3-carbonyl)-N-hydroxy-3-methyl-2,3,4,5-tetrahydrobenzo[f][1,4]oxazepine-8-carboxamide] | ≤ 0.1
C[C@H]1COc2cc(C(=O)NO)ccc2CN1C(=O)[C@@H]1CC2CCC1O2 (stereo partly drawn) [(3S)-4-((2R)-7-oxabicyclo[2.2.1]heptane-2-carbonyl)-N-hydroxy-3-methyl-2,3,4,5-tetrahydrobenzo[f][1,4]oxazepine-8-carboxamide] | ≤ 0.1
C[C@H]1COc2cc(C(=O)NO)ccc2CN1C(=O)[C@H]1CC2CCC1O2 (stereo partly drawn) [(3S)-4-((2S)-7-oxabicyclo[2.2.1]heptane-2-carbonyl)-N-hydroxy-3-methyl-2,3,4,5-tetrahydrobenzo[f][1,4]oxazepine-8-carboxamide] | ≤ 0.1
C[C@H]1COc2cc(C(=O)NO)ccc2CN1C(=O)CC1CCCO1 (stereo partly drawn) [(3S)-N-hydroxy-3-methyl-4-(2-(tetrahydrofuran-2-yl)acetyl)-2,3,4,5-tetrahydrobenzo[f][1,4]oxazepine-8-carboxamide] | ≤ 0.1
C[C@H]1COc2cc(C(=O)NO)ccc2CN1C(=O)C1(C)CCCO1 (stereo partly drawn) [(3S)-N-hydroxy-3-methyl-4-(2-methyltetrahydrofuran-2-carbonyl)-2,3,4,5-tetrahydrobenzo[f][1,4]oxazepine-8-carboxamide] | ≤ 0.1
C[C@H]1COc2cc(C(=O)NO)ccc2CN1C(=O)C1CCCOCC1 (stereo partly drawn) [(3S)-N-hydroxy-3-methyl-4-(oxepane-4-carbonyl)-2,3,4,5-tetrahydrobenzo[f][1,4]oxazepine-8-carboxamide] | ≤ 0.1
CC(C)C1OCCC1C(=O)N1Cc2ccc(C(=O)NO)cc2OC[C@@H]1C (stereo partly drawn) [(3S)-N-hydroxy-4-(2-isopropyltetrahydrofuran-3-carbonyl)-3-methyl-2,3,4,5-tetrahydrobenzo[f][1,4]oxazepine-8-carboxamide] | ≤ 0.1
CC(=O)N1Cc2ccc(C(=O)NO)cc2O[C@H](C)C1 [(R)-4-acetyl-N-hydroxy-2-methyl-2,3,4,5-tetrahydrobenzo[f][1,4]oxazepine-8-carboxamide] | > 0.5
CC(=O)N1Cc2ccc(C(=O)NO)cc2OC[C@H]1C(C)C [(R)-4-acetyl-N-hydroxy-3-isopropyl-2,3,4,5-tetrahydrobenzo[f][1,4]oxazepine-8-carboxamide] | 0.1 to 0.5
CC(=O)N1Cc2ccc(C(=O)NO)cc2OC[C@H]1C [(R)-4-acetyl-N-hydroxy-3-methyl-2,3,4,5-tetrahydrobenzo[f][1,4]oxazepine-8-carboxamide] | > 0.5
COC[C@H]1CN(C=O)Cc2ccc(C(=O)NO)cc2O1 [(R)-4-formyl-N-hydroxy-2-(methoxymethyl)-2,3,4,5-tetrahydrobenzo[f][1,4]oxazepine-8-carboxamide] | ≤ 0.1
CC(C)[C@@H]1CN(C=O)Cc2ccc(C(=O)NO)cc2O1 [(R)-4-formyl-N-hydroxy-2-isopropyl-2,3,4,5-tetrahydrobenzo[f][1,4]oxazepine-8-carboxamide] | 0.1 to 0.5
C[C@@H]1CN(C=O)Cc2ccc(C(=O)NO)cc2O1 [(R)-4-formyl-N-hydroxy-2-methyl-2,3,4,5-tetrahydrobenzo[f][1,4]oxazepine-8-carboxamide] | ≤ 0.1
O=CN1Cc2ccc(C(=O)NO)cc2O[C@H](c2ccccc2)C1 [(R)-4-formyl-N-hydroxy-2-phenyl-2,3,4,5-tetrahydrobenzo[f][1,4]oxazepine-8-carboxamide] | ≤ 0.1
C[C@@H]1COc2cc(C(=O)NO)ccc2CN1C=O [(R)-4-formyl-N-hydroxy-3-methyl-2,3,4,5-tetrahydrobenzo[f][1,4]oxazepine-8-carboxamide] | ≤ 0.1
COC[C@H]1CN(C(=O)C2(C)CCC2)Cc2ccc(C(=O)NO)cc2O1 [(R)-N-hydroxy-2-(methoxymethyl)-4-(1-methylcyclobutane-1-carbonyl)-2,3,4,5-tetrahydrobenzo[f][1,4]oxazepine-8-carboxamide] | 0.1 to 0.5
COC[C@H]1CN(C(=O)C2CCOCC2)Cc2ccc(C(=O)NO)cc2O1 [(R)-N-hydroxy-2-(methoxymethyl)-4-(tetrahydro-2H-pyran-4-carbonyl)-2,3,4,5-tetrahydrobenzo[f][1,4]oxazepine-8-carboxamide] | 0.1 to 0.5
CC(C)[C@@H]1CN(C(=O)C2(C)CCC2)Cc2ccc(C(=O)NO)cc2O1 [(R)-N-hydroxy-2-isopropyl-4-(1-methylcyclobutane-1-carbonyl)-2,3,4,5-tetrahydrobenzo[f][1,4]oxazepine-8-carboxamide] | 0.1 to 0.5
CC(C)[C@@H]1CN(C(=O)C2CCOCC2)Cc2ccc(C(=O)NO)cc2O1 [(R)-N-hydroxy-2-isopropyl-4-(tetrahydro-2H-pyran-4-carbonyl)-2,3,4,5-tetrahydrobenzo[f][1,4]oxazepine-8-carboxamide] | 0.1 to 0.5
